Data published in PubChem BioAssay (NCI).
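GI50 = concentration required for 50% inhibition of growth. The concentration for full growth arrest is given as TGI.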

Experiments:
Assay in all cases: growth of human tumour cells (NCI), 384-well format
M14 melanoma = system: M14 melanoma
OVCAR-3 ovarian = system: OVCAR-3 ovarian
HT29 colon = system: HT29 colon
PC-3 prostate = system: PC-3 prostate
SK-MEL-2 melanoma = system: SK-MEL-2 melanoma
NCI/ADR-RES ovarian = system: NCI/ADR-RES ovarian
K-562 leukemia = system: K-562 leukemia
U251 glioblastoma = system: U251 glioblastoma
HCC-2998 colon = system: HCC-2998 colon
HOP-92 NSCLC = system: HOP-92 NSCLC
HOP-62 NSCLC = system: HOP-62 NSCLC
OVCAR-8 ovarian = system: OVCAR-8 ovarian
T-47D breast = system: T-47D breast
RXF 393 renal = system: RXF 393 renal
UO-31 renal = system: UO-31 renal
COLO 205 colon = system: COLO 205 colon
UACC-257 melanoma = system: UACC-257 melanoma
SK-MEL-5 melanoma = system: SK-MEL-5 melanoma
NCI-H23 lung = system: NCI-H23 lung
NCI-H460 NSCLC = system: NCI-H460 NSCLC
ACHN renal = system: ACHN renal
MDA-MB-468 breast = system: MDA-MB-468 breast
MDA-MB-435 melanoma = system: MDA-MB-435 melanoma
NCI-H226 lung = system: NCI-H226 lung
DU-145 prostate = system: DU-145 prostate
786-0 renal = system: 786-0 renal
CCRF-CEM leukemia = system: CCRF-CEM leukemia
KM12 colon = system: KM12 colon
A498 renal = system: A498 renal
SNB-19 CNS = system: SNB-19 CNS
HS 578T breast = system: HS 578T breast
HCT-116 colon = system: HCT-116 colon
MCF7 breast = system: MCF7 breast
SF-268 CNS = system: SF-268 CNS
SR leukemia = system: SR leukemia
SN12C renal = system: SN12C renal
OVCAR-4 ovarian = system: OVCAR-4 ovarian
SK-OV-3 ovarian = system: SK-OV-3 ovarian
MDA-MB-231 breast = system: MDA-MB-231 breast
SNB-75 CNS = system: SNB-75 CNS
MOLT-4 leukemia = system: MOLT-4 leukemia
RPMI-8226 leukemia = system: RPMI-8226 leukemia
NCI-H322M lung = system: NCI-H322M lung
LOX IMVI melanoma = system: LOX IMVI melanoma
CAKI-1 renal = system: CAKI-1 renal
MALME-3M melanoma = system: MALME-3M melanoma
A549 NSCLC = system: A549 NSCLC

SMILES: CC(C)[C@](O)(c1ccc2cc(OC(F)F)c(OC(F)F)cc2c1)c1cn[nH]n1
- GI50 (M14 melanoma): 17.6 µM
- TGI (M14 melanoma): 31.6 µM
- GI50 (OVCAR-3 ovarian): 13 µM
- TGI (OVCAR-3 ovarian): 25.8 µM
- GI50 (HT29 colon): 16 µM
- TGI (HT29 colon): 29.8 µM
- GI50 (PC-3 prostate): 15.9 µM
- TGI (PC-3 prostate): 30.3 µM
- GI50 (SK-MEL-2 melanoma): 19.4 µM
- TGI (SK-MEL-2 melanoma): 33.5 µM
- GI50 (NCI/ADR-RES ovarian): 18.7 µM
- TGI (NCI/ADR-RES ovarian): 33.8 µM
- GI50 (K-562 leukemia): 11 µM
- TGI (K-562 leukemia): 23.5 µM
- GI50 (U251 glioblastoma): 16.7 µM
- TGI (U251 glioblastoma): 30.5 µM
- GI50 (HCC-2998 colon): 15.4 µM
- TGI (HCC-2998 colon): 28.9 µM
- GI50 (HOP-92 NSCLC): 16.7 µM
- TGI (HOP-92 NSCLC): 30.4 µM
- GI50 (HOP-62 NSCLC): 16.3 µM
- TGI (HOP-62 NSCLC): 30 µM
- GI50 (OVCAR-8 ovarian): 16.3 µM
- TGI (OVCAR-8 ovarian): 30 µM
- GI50 (T-47D breast): 10.9 µM
- TGI (T-47D breast): 38.2 µM
- GI50 (RXF 393 renal): 13.8 µM
- TGI (RXF 393 renal): 28.3 µM
- GI50 (UO-31 renal): 16.6 µM
- TGI (UO-31 renal): 30.4 µM
- GI50 (COLO 205 colon): 20.3 µM
- TGI (COLO 205 colon): 39.9 µM
- GI50 (UACC-257 melanoma): 16.5 µM
- TGI (UACC-257 melanoma): 30.6 µM
- GI50 (SK-MEL-5 melanoma): 13.1 µM
- TGI (SK-MEL-5 melanoma): 25.9 µM
- GI50 (NCI-H23 lung): 14.8 µM
- TGI (NCI-H23 lung): 29.6 µM
- GI50 (NCI-H460 NSCLC): 16.6 µM
- TGI (NCI-H460 NSCLC): 30.5 µM
- GI50 (ACHN renal): 25.5 µM
- TGI (ACHN renal): 59.8 µM
- GI50 (MDA-MB-468 breast): 10.3 µM
- TGI (MDA-MB-468 breast): 27.7 µM
- GI50 (MDA-MB-435 melanoma): 16.9 µM
- TGI (MDA-MB-435 melanoma): 31.3 µM
- GI50 (NCI-H226 lung): 21 µM
- TGI (NCI-H226 lung): 36 µM
- GI50 (DU-145 prostate): 16.5 µM
- TGI (DU-145 prostate): 32.8 µM
- GI50 ([…]-0 renal): 16.2 µM
- TGI (786-0 renal): 30.3 µM
- GI50 (CCRF-CEM leukemia): 12.3 µM
- TGI (CCRF-CEM leukemia): 24.8 µM
- GI50 (KM12 colon): 15 µM
- TGI (KM12 colon): 28.6 µM
- GI50 (A498 renal): 17.5 µM
- TGI (A498 renal): 31.8 µM
- GI50 (SNB-19 CNS): 17.8 µM
- TGI (SNB-19 CNS): 32.2 µM
- GI50 (HS 578T breast): 12.3 µM
- TGI (HS 578T breast): 24.8 µM
- GI50 (HCT-116 colon): 13.6 µM
- TGI (HCT-116 colon): 26.9 µM
- GI50 (MCF7 breast): 13 µM
- TGI (MCF7 breast): 27.5 µM
- GI50 (SF-268 CNS): 16.5 µM
- TGI (SF-268 CNS): 30.6 µM
- GI50 (SR leukemia): 3.91 µM
- TGI (SR leukemia): 13.6 µM
- GI50 (SN12C renal): 14.9 µM
- TGI (SN12C renal): 28.2 µM
- GI50 (OVCAR-4 ovarian): 13.6 µM
- TGI (OVCAR-4 ovarian): 33.1 µM
- GI50 (SK-OV-3 ovarian): 15.4 µM
- TGI (SK-OV-3 ovarian): 29.5 µM
- GI50 (MDA-MB-231 breast): 13.2 µM
- TGI (MDA-MB-231 breast): 26.3 µM
- GI50 (SNB-75 CNS): 14.9 µM
- TGI (SNB-75 CNS): 29.5 µM
- GI50 (MOLT-4 leukemia): 11.3 µM
- TGI (MOLT-4 leukemia): 23.5 µM
- GI50 (RPMI-8226 leukemia): 9.27 µM
- TGI (RPMI-8226 leukemia): 22.5 µM
- GI50 (NCI-H322M lung): 17.3 µM
- TGI (NCI-H322M lung): 33 µM
- GI50 (LOX IMVI melanoma): 17.3 µM
- TGI (LOX IMVI melanoma): 31.2 µM
- GI50 (CAKI-1 renal): 15.7 µM
- TGI (CAKI-1 renal): 32.3 µM
- GI50 (MALME-3M melanoma): 16.7 µM
- TGI (MALME-3M melanoma): 30.9 µM
- GI50 (A549 NSCLC): 17.4 µM
- TGI (A549 NSCLC): 44.8 µM
